Results as given in patent publication US6514999B1, “Use of an agent for treating the symptoms of Parkinson's disease” (priority 1998, dated 2003).

Test system: symptoms of Parkinson's disease
Test: Application to parkinsonian patients for treating the symptoms of Parkinson's disease
Type: in vivo, human (parkinsonian patients)
Conditions: compared within the anilide group of local anesthetics (lidocaine, bupivacaine, butanilicaine, etidocaine, tolycaine)
Description: The inventive use has the effect, upon application to parkinsonian patients, that the specific symptoms of Parkinson's disease clearly subside, the resulting improved condition of the patient continuing for several hours and even days. In particular, a clear improvement of disease-specific symptoms was obtained with the inventive use […] “local anesthetic of the anilide group” essential to the inventive use belongs in general to the local anesthetics of different structure, the local anesthetics of the anilide group and their derivatives being preferred for treatment as a subgroup of said local anesthetics. Examples of said subgroup are not only mepivacaine but also lidocaine, bupivacaine, butanilicaine, etidocaine and tolycaine. […] One supposition is that the small molecular size of mepivacaine provides an increased probability of crossing the blood-brain barrier. Mepivacaine is in addition lipophilic, i.e. lipid-loving, and tends to attach to fat molecules. It is remarkable in this connection that neurons are usually embedded in fat and an accumulation or concentration of mepivacaine in fat will presumably also have effects on the nervous pathways running through fatty tissue. Levodopa also has strong lipophilia, like mepivacaine, so that this connection might also provide a mechanism of action. […]

SMILES: Cc1cccc(C)c1NC(=O)C1CCCCN1C (stereo not shown) [mepivacaine]
- effectiveness in treating patients with Parkinson's disease: most effective
